# Species: Bos taurus
# Test: Displacement of ethidium bromide from calf thymus DNA by fluorescence binding assay
row,Compound,log Ka
1,O=C(CCN1C(=O)c2cccc3cccc(c23)C1=O)NCCCN1CCOCC1,5.72
2,c1ccc2nc3c(nc2c1)c1ccccc1n3CCCCCN1CCOCC1,5.73
3,O=C(CCCn1c2ccccc2c2nc3ccccc3nc21)OCCN1CCCCC1,5.57
4,O=C(Cn1c2ccccc2c2nc3ccccc3nc21)NCCCNCCO,5.06
5,CN(C)CCCn1c2ccccc2c2nc3ccccc3nc21,6.01
6,c1ccc2nc3c(nc2c1)c1ccccc1n3CCN1CCCCCC1,6.16
7,CN(C)CCn1c2ccc3ccccc3c2c2nc3ccccc3nc21,6.94
8,O=C(CN1CCCC1)N/N=C1/C(=O)Nc2ccc3ccccc3c21,6.44
9,CCN(CC)CCCOC(=O)CCCn1c2ccccc2c2nc3ccccc3nc21,5.29
10,O=C(Cn1c2ccccc2c2nc3ccccc3nc21)OCCN1CCOCC1,5.18
11,CCN(CC)CCN1C(=O)/C(=N\NC(=O)CN2CCOCC2)c2ccccc21,6.21
12,CCN(CC)CCOCCn1c2ccccc2c2nc3ccccc3nc21,5.26
13,CC1CCN(CCn2c3ccccc3c3nc4ccccc4nc32)CC1,5.98
14,CC1CCCCN1CCn1c2ccccc2c2nc3ccccc3nc21 (stereo not drawn),5.19
15,CCN(CC)CCn1c2ccccc2c2nc3ccccc3nc21,6.07
16,CCN(CC)CCN1C(=O)/C(=N\NC(=O)CCN2CCN(C)CC2)c2ccccc21,6.15
17,O=C(CCCN1C(=O)c2cccc3cccc(c23)C1=O)NCCN1CCOCC1,5.87
18,c1ccc2nc3c(nc2c1)c1ccccc1n3CCNCCN1CCOCC1,6.17
19,OCCNCCn1c2ccccc2c2nc3ccccc3nc21,6.31
20,CC1CCN(CCCCn2c3ccccc3c3nc4ccccc4nc32)CC1,5.8
21,CCN(CC)CCCn1c2ccccc2c2nc3ccccc3nc21,6.11
22,CCN(CC)CCCCn1c2ccccc2c2nc3ccccc3nc21,6.22

row,Compound,log Ka
1,O=C(Cn1c2ccccc2c2nc3ccccc3nc21)NCCN1CCCCC1,5.15
2,c1ccc2c(c1)ccc1c2c2nc3ccccc3nc2n1CCN1CCOCC1,6.94
3,O=C(CN1CCCCC1)N/N=C1\C(=O)Nc2ccccc21,5.64
4,CCCCN(CC)CCn1c2ccccc2c2nc3ccccc3nc21,6.01
5,c1ccc2nc3c(nc2c1)c1ccccc1n3CCCCN1CCOCC1,5.94
6,c1ccc2nc3c(nc2c1)c1ccccc1n3CCCCCCN1CCOCC1,5.73
7,CN1CCN(CCCCn2c3ccccc3c3nc4ccccc4nc32)CC1,6.04
8,CN(C)CCOCCn1c2ccccc2c2nc3ccccc3nc21,5.59
9,CC1CCCCN1CCCCn1c2ccccc2c2nc3ccccc3nc21 (stereo not drawn),5.6
10,c1ccc2c(c1)ccc1c2c2nc3ccccc3nc2n1CCN1CCCCC1,6.61
11,CC1CCN(CC(=O)N/N=C2\C(=O)Nc3ccccc32)CC1,5.4
12,c1ccc2nc3c(nc2c1)c1ccccc1n3CCOCCN1CCOCC1,5.32
13,CC1CCN(CCCn2c3ccccc3c3nc4ccccc4nc32)CC1,6.07
14,CN(C)CCCCCn1c2ccccc2c2nc3ccccc3nc21,5.66
15,CN1CCN(CCCn2c3ccccc3c3nc4ccccc4nc32)CC1,6.37
16,O=C(CN1CCCCCC1)N/N=C1/C(=O)Nc2ccc3ccccc3c21,6.52
17,O=C(CN1CCCCC1)N/N=C1/C(=O)Nc2ccc3ccccc3c21,6.21
18,CN1CCN(CC(=O)N/N=C2\C(=O)Nc3ccc4ccccc4c32)CC1,5.99
19,CC1CCN(CC(=O)N/N=C2/C(=O)Nc3ccc4ccccc4c32)CC1,7.11
20,CCN(CC)CCNC(=O)CCN1C(=O)c2cccc3cccc(c23)C1=O,5.85
21,CCN(CC)CCNC(=O)CCCN1C(=O)c2cccc3cccc(c23)C1=O,6.13
22,c1ccc2nc3c(nc2c1)c1ccccc1n3CCCN1CCOCC1,6.09

# Test system: Vesicular stomatitis virus
# Test: Antiviral activity against Vesicular stomatitis virus at 0.2 to 620 uM after 24 hrs post infection relative to control
# Assay type: functional
row,Compound,Activity
1,O=C(CCN1C(=O)c2cccc3cccc(c23)C1=O)NCCCN1CCOCC1,30%
2,c1ccc2nc3c(nc2c1)c1ccccc1n3CCCCCN1CCOCC1,77%
3,O=C(CCCn1c2ccccc2c2nc3ccccc3nc21)OCCN1CCCCC1,25%
4,O=C(Cn1c2ccccc2c2nc3ccccc3nc21)NCCCNCCO,72%
5,CN(C)CCCn1c2ccccc2c2nc3ccccc3nc21,23%
6,c1ccc2nc3c(nc2c1)c1ccccc1n3CCN1CCCCCC1,90%
7,CN(C)CCn1c2ccc3ccccc3c2c2nc3ccccc3nc21,21%
8,O=C(CN1CCCC1)N/N=C1/C(=O)Nc2ccc3ccccc3c21,10%
9,CCN(CC)CCCOC(=O)CCCn1c2ccccc2c2nc3ccccc3nc21,0%
10,O=C(Cn1c2ccccc2c2nc3ccccc3nc21)OCCN1CCOCC1,45%
11,CCN(CC)CCN1C(=O)/C(=N\NC(=O)CN2CCOCC2)c2ccccc21,8%
12,CCN(CC)CCOCCn1c2ccccc2c2nc3ccccc3nc21,56%
13,CC1CCN(CCn2c3ccccc3c3nc4ccccc4nc32)CC1,90%
14,CC1CCCCN1CCn1c2ccccc2c2nc3ccccc3nc21 (stereo not drawn),90%
15,CCN(CC)CCn1c2ccccc2c2nc3ccccc3nc21,90%
16,CCN(CC)CCN1C(=O)/C(=N\NC(=O)CCN2CCN(C)CC2)c2ccccc21,100%
17,O=C(CCCN1C(=O)c2cccc3cccc(c23)C1=O)NCCN1CCOCC1,5%
18,c1ccc2nc3c(nc2c1)c1ccccc1n3CCNCCN1CCOCC1,40%
19,OCCNCCn1c2ccccc2c2nc3ccccc3nc21,80%
20,CC1CCN(CCCCn2c3ccccc3c3nc4ccccc4nc32)CC1,20%
21,CCN(CC)CCCn1c2ccccc2c2nc3ccccc3nc21,30%
22,CCN(CC)CCCCn1c2ccccc2c2nc3ccccc3nc21,10%

row,Compound,Activity
1,O=C(Cn1c2ccccc2c2nc3ccccc3nc21)NCCN1CCCCC1,80%
2,c1ccc2c(c1)ccc1c2c2nc3ccccc3nc2n1CCN1CCOCC1,10%
3,O=C(CN1CCCCC1)N/N=C1\C(=O)Nc2ccccc21,100%
4,CCCCN(CC)CCn1c2ccccc2c2nc3ccccc3nc21,50%
5,c1ccc2nc3c(nc2c1)c1ccccc1n3CCCCN1CCOCC1,35%
6,c1ccc2nc3c(nc2c1)c1ccccc1n3CCCCCCN1CCOCC1,6%
7,CN1CCN(CCCCn2c3ccccc3c3nc4ccccc4nc32)CC1,10%
8,CN(C)CCOCCn1c2ccccc2c2nc3ccccc3nc21,32%
9,CC1CCCCN1CCCCn1c2ccccc2c2nc3ccccc3nc21 (stereo not drawn),26%
10,c1ccc2c(c1)ccc1c2c2nc3ccccc3nc2n1CCN1CCCCC1,20%
11,CC1CCN(CC(=O)N/N=C2\C(=O)Nc3ccccc32)CC1,60%
12,c1ccc2nc3c(nc2c1)c1ccccc1n3CCOCCN1CCOCC1,50%
13,CC1CCN(CCCn2c3ccccc3c3nc4ccccc4nc32)CC1,74%
14,CN(C)CCCCCn1c2ccccc2c2nc3ccccc3nc21,68%
15,CN1CCN(CCCn2c3ccccc3c3nc4ccccc4nc32)CC1,39%
16,O=C(CN1CCCCCC1)N/N=C1/C(=O)Nc2ccc3ccccc3c21,20%
17,O=C(CN1CCCCC1)N/N=C1/C(=O)Nc2ccc3ccccc3c21,10%
18,CN1CCN(CC(=O)N/N=C2\C(=O)Nc3ccc4ccccc4c32)CC1,70%
19,CC1CCN(CC(=O)N/N=C2/C(=O)Nc3ccc4ccccc4c32)CC1,40%
20,CCN(CC)CCNC(=O)CCN1C(=O)c2cccc3cccc(c23)C1=O,20%
21,CCN(CC)CCNC(=O)CCCN1C(=O)c2cccc3cccc(c23)C1=O,20%
22,c1ccc2nc3c(nc2c1)c1ccccc1n3CCCN1CCOCC1,25%
